Data as given in PMC6691788, “Design and synthesis of phthalazine-based compounds as potent anticancer agents with potential antiangiogenic activity via VEGFR-2 inhibition” (Journal of Enzyme Inhibition and Medicinal Chemistry, 2019).

Tests used:
[1] = tested on: NCI-H522; assay: NCI 60 cell panel SRB screen; format: cell-based; settings: Homo sapiens
[2] = tested on: MDA-MB-435; assay: NCI 60 cell panel SRB screen; format: cell-based; settings: Homo sapiens
[3] = tested on: SNB-19; assay: NCI 60 cell panel SRB screen; format: cell-based; settings: Homo sapiens
[4] = tested on: OVCAR-5; assay: NCI 60 cell panel SRB screen; format: cell-based; settings: Homo sapiens
[5] = tested on: HCC-2998; assay: NCI 60 cell panel SRB screen; format: cell-based; settings: Homo sapiens
[6] = tested on: OVCAR-4; assay: NCI 60 cell panel SRB screen; format: cell-based; settings: Homo sapiens
[7] = tested on: TK-10; assay: NCI 60 cell panel SRB screen; format: cell-based, human
[8] = tested on: T-47D; assay: NCI 60 cell panel SRB screen; format: cell-based; settings: Homo sapiens, T47D
[9] = tested on: MOLT-4; assay: NCI 60 cell panel SRB screen; format: cell-based; settings: Homo sapiens
[10] = tested on: NCI-H226; assay: NCI 60 cell panel SRB screen; format: cell-based; settings: Homo sapiens
[11] = tested on: RXF 393; assay: NCI 60 cell panel SRB screen; format: cell-based; settings: Homo sapiens
[12] = tested on: K-562; assay: NCI 60 cell panel SRB screen; format: cell-based; settings: Homo sapiens, K562
[13] = tested on: A549/ATCC; assay: NCI 60 cell panel SRB screen; format: cell-based; settings: Homo sapiens
[14] = tested on: SNB-75; assay: NCI 60 cell panel SRB screen; format: cell-based; settings: Homo sapiens
[15] = tested on: CAKI-1; assay: NCI 60 cell panel SRB screen; format: cell-based, human
[16] = tested on: OVCAR-3; assay: NCI 60 cell panel SRB screen; format: cell-based; settings: Homo sapiens
[17] = tested on: full NCI 60 cell panel; assay: NCI 60 cell panel SRB screen, whole panel; format: cell-based, human; settings: Homo sapiens, 60 cell
Text: Aiming to evaluate the general antitumour activity of the synthesised phthalazines, the structures of the final compounds were submitted to National Cancer Institute “NCI” (www.dtp.nci.nih.gov), Bethesda, Maryland, USA. In vitro NCI anticancer screening involves two-stage process, the first stage started with the evaluation of the selected candidates against the full NCI 60 cell lines panel representing leukaemia, non-small cell lung cancer, melanoma, colon, CNS, breast, ovarian, renal and prostate cancers at a single dose of 10 µM. NCI selection is based on degree of structure variation and application of computer modelling techniques to prioritise compounds based on their ability to add diversity to the NCI small molecule compound collection.
Eight compounds (6b, 6e, 7b, 13a, 13c, 16a, 16d and 17a) were selected by NCI for further 5 log dose screening against full NCI 60 cell panel. All the 60 cell lines, representing nine tumour subpanels (leukaemia, non-small cell lung cancer, colon cancer, CNS cancer, prostate cancer, melanoma, ovarian cancer, renal cancer and breast cancer) which were incubated at five different concentrations (0.01, 0.1, 1, 10 and 100 µM) of each of the test compounds. The outcomes were used to create log concentration vs % growth inhibition curves, then three response parameters (GI50, TGI and LC50) were calculated for each cell line, (Tables S4 and S5 in Supplementary material).
The human tumor cell lines of the cancer-screening panel were grown in RPMI 1640 medium containing 5% fetal bovine serum and […] L-glutamine. For a typical screening experiment, cells are inoculated into 96 well microtiter plates in 100 ml at plating densities ranging from 5000 to 40,000 cells/well depending on the doubling time of individual cell lines. After cell inoculation, the microtiter plates are incubated at 37 °C, 5% CO2, 95% air and 100%
relative humidity for 24 h prior to addition of experimental drugs. After 24 h, two plates of each cell line are fixed in situ with TCA, to represent a measurement of the cell population for each cell line at the time of drug addition (Tz). Experimental drugs are dissolved in dimethyl sulfoxide at 400-fold the desired final maximum test concentration and stored frozen prior to use. At the time of drug addition, an aliquot of frozen concentrate is thawed and diluted to twice the desired final maximum test concentration with complete medium containing […] Gentamicin. Additional four, 10-fold or ½log serial dilutions are made to provide a total of five drug concentrations plus control. Aliquots of […] of these different drug dilutions are added to the appropriate microtiter wells already containing 100 ml of medium, resulting in the required final drug concentrations. Following drug addition, the plates are incubated for an additional 48 h at 37 °C, 5% CO2, 95% air, and 100% relative humidity. For adherent cells, the assay is terminated by the addition of cold TCA. Cells are fixed in situ by the gentle addition of […] of cold 50% (w/v) TCA (final concentration,10% TCA) and incubated for 60 min at 4 °C. The supernatant is discarded, and the plates are washed five times with tap water and air dried. Sulforhodamine B (SRB) solution (100 ml) at 0.4% (w/v) in 1% acetic acid is added to each well, and plates are incubated for 10 min at room temperature. After staining, unbound dye is removed by washing five times with 1% acetic acid and the plates are air dried. Bound stain is subsequently dissolved with 10 μM trizma base, and the absorbance is read on an automated plate reader at a wavelength of 515 nm. For suspension cells, the methodology is the same except that the assay is terminated by fixing settled cells at the bottom of the wells by gently adding […] of 80% TCA (final concentration, 16% TCA). […]

[18] = tested on: HCT-15; assay: NCI 60 cell panel SRB screen; format: cell-based; settings: Homo sapiens

`O=C(Nc1ccc(Cl)cc1)Nc1ccc(Nc2nncc3ccccc23)cc1` [Compound 6b, 1–(4-Chlorophenyl)-3–(4-(phthalazin-1-ylamino)phenyl)urea] showed a GI50 ([1]; NCI-H522, 5 log dose) of 1.32 µM, an IC (TGI) ([1]; NCI-H522, 5 log dose) of 8.81 µM and a CC50 ([1]; NCI-H522, 5 log dose, 48 h, read-out: LC50 (the source's name)) of 43.2 µM. For the same compound, the activity at 10 µM ([1]; NCI-H522, single dose 10 μM, read-out: percent cell growth promotion) was 11.9%, the GI50 ([2]; MDA-MB-435) was 2.14 µM and the IC (TGI) ([2]; MDA-MB-435, read-out: TGI) was 9.42 µM. For the same compound, the activity at 10 µM ([2]; MDA-MB-435, read-out: percent cell growth promotion) was 13.7%, the CC50 ([2]; MDA-MB-435, 5 log dose, 48 h, read-out: LC50 (the source's name)) was 30.9 µM and the GI50 ([3]; SNB-19, 5 log dose) was 3.67 µM. The IC (TGI) ([3]; SNB-19, 5 log dose) was 19 µM, the CC50 ([3]; SNB-19, 5 log dose, 48 h, read-out: LC50 (the source's name)) was over 100 µM and the activity at 10 µM ([3]; SNB-19, single dose 10 μM, read-out: percent cell growth promotion) was 33%. It also gave a GI50 ([4]; OVCAR-5, 5 log dose) of 4.15 µM, an IC (TGI) ([4]; OVCAR-5, 5 log dose) of 34.3 µM and a CC50 ([4]; OVCAR-5, 5 log dose, 48 h, read-out: LC50 (the source's name)) of over 100 µM. The activity at 10 µM ([4]; OVCAR-5, single dose 10 μM, read-out: percent cell growth promotion) was 85.6%, the GI50 ([5]; HCC-2998, 5 log dose) was 3.26 µM and the IC (TGI) ([5]; HCC-2998, 5 log dose) was 19.8 µM. It also gave an LC50 (50% lethal concentration) ([5]; HCC-2998, 5 log dose, 48 h) of over 100 µM, an activity at 10 µM ([5]; HCC-2998, single dose 10 μM, read-out: percent cell growth promotion) of 30.7% and a GI50 ([6]; OVCAR-4, 5 log dose) of 1.97 µM. It also gave an IC (TGI) ([6]; OVCAR-4, 5 log dose) of 8.17 µM, a CC50 ([6]; OVCAR-4, 5 log dose, 48 h, read-out: LC50 (the source's name)) of over 100 µM and an activity at 10 µM ([6]; OVCAR-4, single dose 10 μM, read-out: percent cell growth promotion) of 11.1%. It also gave a GI50 ([7]; Homo sapiens, TK-10, 5 log dose) of 5.03 µM, a CC50 ([7]; Homo sapiens, TK-10, 5 log dose, 48 h, read-out: LC50 (the source's name)) of over 100 µM and an activity at 10 µM ([7]; Homo sapiens, TK-10, single dose 10 μM, read-out: percent cell growth promotion) of 32%. The TGI ([7]; TK-10, 5 log dose) was 24.4 µM, the GI50 [8] was 1.03 µM and the IC (TGI) ([8]; read-out: TGI) was 5.35 µM. The activity at 10 µM ([8]; read-out: percent cell growth promotion) was -6.32%, the CC50 ([8]; T-47D, 5 log dose, 48 h, read-out: LC50 (the source's name)) was 79.3 µM and the GI50 ([9]; MOLT-4, 5 log dose) was 2.09 µM. It also gave an IC (TGI) ([9]; MOLT-4, 5 log dose) of 6.36 µM, a CC50 ([9]; MOLT-4, 5 log dose, 48 h, read-out: LC50 (the source's name)) of over 100 µM and an activity at 10 µM ([9]; MOLT-4, single dose 10 μM, read-out: percent cell growth promotion) of -1.61%. For the same compound, the GI50 ([10]; NCI-H226, 5 log dose) was 2.46 µM, the IC (TGI) ([10]; NCI-H226, 5 log dose) was 12.5 µM and the CC50 ([10]; NCI-H226, 5 log dose, 48 h, read-out: LC50 (the source's name)) was 43.2 µM. The activity at 10 µM ([10]; NCI-H226, single dose 10 μM, read-out: percent cell growth promotion) was 33.3%, the GI50 ([11]; RXF 393, 5 log dose) was 4.28 µM and the IC (TGI) ([11]; RXF 393, 5 log dose) was 21.4 µM. The CC50 ([11]; RXF 393, 5 log dose, 48 h, read-out: LC50 (the source's name)) was over 100 µM, the activity at 10 µM ([11]; RXF 393, single dose 10 μM, read-out: percent cell growth promotion) was 65.7% and the GI50 ([12]; K-562, 5 log dose) was 1.68 µM. The IC (TGI) ([12]; K-562, 5 log dose) was 26.4 µM, the CC50 ([12]; K-562, 5 log dose, 48 h, read-out: LC50 (the source's name)) was over 100 µM and the activity at 10 µM ([12]; K-562, single dose 10 μM, read-out: percent cell growth promotion) was 9.49%. It also gave a GI50 ([13]; 5 log dose) of 3.03 µM, an IC (TGI) ([13]; 5 log dose) of 19.3 µM and an LC50 (concentration killing 50% of cells) ([13]; 5 log dose, 48 h) of over 100 µM. For the same compound, the activity at 10 µM ([13]; single dose 10 μM, read-out: percent cell growth promotion) was 20.1%, the GI50 ([14]; SNB-75, 5 log dose) was 1.88 µM and the IC (TGI) ([14]; SNB-75, 5 log dose) was 8.67 µM. The LC50 (concentration killing 50% of cells) ([14]; SNB-75, 5 log dose, 48 h) was 31.8 µM, the activity at 10 µM ([14]; SNB-75, single dose 10 μM, read-out: percent cell growth promotion) was 46.2% and the TGI ([15]; CAKI-1, 5 log dose) was 12.5 µM. For the same compound, the GI50 ([15]; Homo sapiens, CAKI-1, 5 log dose) was 1.97 µM, the CC50 ([15]; Homo sapiens, CAKI-1, 5 log dose, 48 h, read-out: LC50 (the source's name)) was 88 µM and the activity at 10 µM ([15]; Homo sapiens, CAKI-1, single dose 10 μM, read-out: percent cell growth promotion) was 20.6%. The GI50 ([16]; OVCAR-3, 5 log dose) was 2.57 µM, the IC (TGI) ([16]; OVCAR-3, 5 log dose) was 10.3 µM and the CC50 ([16]; OVCAR-3, 5 log dose, 48 h, read-out: LC50 (the source's name)) was 70 µM. It also gave an activity at 10 µM ([16]; OVCAR-3, single dose 10 μM, read-out: percent cell growth promotion) of 17.6%, an activity at 10 µM ([17]; mean over the panel, single dose 10 μM, read-out: Mean percent cell growth promotion) of 25% and an inhibition at 10 µM ([17]; single dose 10 µM, read-out: cell growth inhibition against various cell lines) of over 90%. The GI50 ([18]; HCT-15, 5 log dose) was 1.59 µM, the IC (TGI) ([18]; HCT-15, 5 log dose) was 11.8 µM and the CC50 ([18]; HCT-15, 5 log dose, 48 h, read-out: LC50 (the source's name)) was 71.5 µM. For the same compound, the activity at 10 µM ([18]; HCT-15, single dose 10 μM, read-out: percent cell growth promotion) was 18.3%.
